≈ marks a conversion by molar mass, not a printed value. Entries after “also recorded” stand apart in the source; their conditions may differ. Like-named read-outs stand apart in the source and are kept apart here.
What was measured:
[1] = Hemolytic activity, minimal hemolytic concentration (MHC); assay type: cell-based, sheep; settings: for MCC at 24 h: sheep, red blood cells;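 for MCC: MCC here is the minimal hemolytic concentration (MHC)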
Procedure: (§1) Hemolytic activity of the squalamine mimics according to the present invention were also studied by incubating sheep red blood cells for 24 hours at 37° C. in saline (final concentration of 0.5%) with or without respective concentrations of the squalamine mimics. The minimal hemolytic concentration (MHC) was determined as the lowest concentration of a mimic that raised visible hemolysis.

S. marcescens (13880) = test: MIC, micro-broth dilution; assay type: cell-based; settings: for MIC: Serratia marcescens, 24 h, read-out: ANTIMICROBIAL ACTIVITY (MIC)
Procedure: (§2) The antimicrobial activity of the compounds according to the present invention were compared with the results obtained for squalamine as reported in Proc. Nat. Acad. Sci. USA 90:1354 (1993), supra, the disclosure of which is incorporated in toto herein. The data reported in the following table is the minimum inhibitory concentration (MIC) required for complete inhibition of microbial growth. The MIC was determined utilizing known micro-broth dilution methods in which inocula of 10^6 /ml of the test organism were incubated in 0.5× trypticase soy broth at 35° C. for 24 hours. MIC's were also tested under various pH conditions, with calcium chloride or magnesium chloride, or with immobilized horse serum.
(§3) The numbers in parentheses contained in the table correspond to accession numbers with the American Type Culture Collection (reference strains were either obtained from the American Type Culture Collection or from the Microbiology Laboratory at Memorial Sloan-Kettering Cancer Center; Bacterial strains were maintained on Columbia 5% sheep blood agar plates, and fungi were maintained on Sabouraud Dextrose agar plates).

S. aureus (H20809) = test: MIC, micro-broth dilution; assay type: cell-based; settings: Staphylococcus aureus, 24 h, read-out: ANTIMICROBIAL ACTIVITY (MIC)
Procedure: as §2, §3

E. faecalis (29212) = test: MIC, micro-broth dilution; assay type: cell-based; settings: Enterococcus faecalis, 35° C., 24 hours, read-out: ANTIMICROBIAL ACTIVITY (MIC)
Procedure: as §2, §3

C. albicans (90028) = test: MIC, micro-broth dilution; assay type: cell-based; settings: Candida albicans, 35° C., 24 hours, read-out: ANTIMICROBIAL ACTIVITY (MIC)
Procedure: as §2, §3

C. neoformans (M68979) = test: MIC, micro-broth dilution; assay type: cell-based; settings: Cryptococcus neoformans, 24 h, read-out: ANTIMICROBIAL ACTIVITY (MIC)
Procedure: as §2, §3

E. cloacae (13047) = test: MIC, micro-broth dilution; assay type: cell-based; settings: Enterobacter cloacae, 35° C., 24 hours, read-out: ANTIMICROBIAL ACTIVITY (MIC)
Procedure: as §2, §3

K. pneumoniae (13883) = test: MIC, micro-broth dilution; assay type: cell-based; settings: Klebsiella pneumoniae, 24 h, read-out: ANTIMICROBIAL ACTIVITY (MIC)
Procedure: as §2, §3

E. coli (25922) = test: MIC, micro-broth dilution; assay type: cell-based; settings: Escherichia coli, 35° C., 24 hours, read-out: ANTIMICROBIAL ACTIVITY (MIC)
Procedure: as §2, §3

P. vulgaris (13315) = test: MIC, micro-broth dilution; assay type: cell-based; settings: Proteus vulgaris, 35° C., 24 hours, read-out: ANTIMICROBIAL ACTIVITY (MIC)
Procedure: as §2, §3

S. agalactiae (13813) = test: MIC, micro-broth dilution; assay type: cell-based; settings: Streptococcus agalactiae, 35° C., 24 hours, read-out: ANTIMICROBIAL ACTIVITY (MIC)
Procedure: as §2, §3

S. pyrogenes (19615) = test: MIC, micro-broth dilution; assay type: cell-based; settings: 24 h, read-out: ANTIMICROBIAL ACTIVITY (MIC)
Procedure: as §2, §3

P. aeruginosa (10145) = test: MIC, micro-broth dilution; assay type: cell-based; settings: Pseudomonas aeruginosa, 35° C., 24 hours, read-out: ANTIMICROBIAL ACTIVITY (MIC)
Procedure: as §2, §3

P. aeruginosa (2853) = test: MIC, micro-broth dilution; assay type: cell-based; settings: Pseudomonas aeruginosa, 24 h, read-out: ANTIMICROBIAL ACTIVITY (MIC)
Procedure: as §2, §3

A. fumigatus (H1120) = test: MIC, micro-broth dilution; assay type: cell-based; settings: Aspergillus fumigatus, 35° C., 24 hours, read-out: ANTIMICROBIAL ACTIVITY (MIC)
Procedure: as §2, §3

S. pneumoniae (6305) = test: MIC, micro-broth dilution; assay type: cell-based; settings: Streptococcus pneumoniae, 35° C., 24 hours, read-out: ANTIMICROBIAL ACTIVITY (MIC)
Procedure: as §2, §3

E. faecium (T6480-9) = test: MIC, micro-broth dilution; assay type: cell-based; settings: Enterococcus faecium, 35° C., 24 hours, read-out: ANTIMICROBIAL ACTIVITY (MIC)
Procedure: as §2, §3

S. aureus (29213) = test: MIC, micro-broth dilution; assay type: cell-based; settings: Staphylococcus aureus, read-out: ANTIMICROBIAL ACTIVITY (MIC)
Procedure: as §2, §3

S. epidermidis (12228) = test: MIC, micro-broth dilution; assay type: cell-based; settings: Staphylococcus epidermidis, 35° C., 24 hours, read-out: ANTIMICROBIAL ACTIVITY (MIC)
Procedure: as §2, §3

S. aureus (25923) = test: MIC, micro-broth dilution; assay type: cell-based; settings: Staphylococcus aureus, 35° C., 24 hours, read-out: ANTIMICROBIAL ACTIVITY (MIC)
Procedure: as §2, §3

[2] = system: various groups of microorganisms; test: Antimicrobial activity (MIC), all microorganisms tested; assay type: cell-based; settings: for MIC: 24 h, read-out: MICs against the various groups of microorganisms tested
Procedure: as §2, §3

A. fumigatus (H29709) = test: MIC, micro-broth dilution; assay type: cell-based; settings: Aspergillus fumigatus, 35° C., 24 hours, read-out: ANTIMICROBIAL ACTIVITY (MIC)
Procedure: as §2, §3

C. neoformans (90012) = test: MIC, micro-broth dilution; assay type: cell-based; settings: Cryptococcus neoformans, 24 h, read-out: ANTIMICROBIAL ACTIVITY (MIC)
Procedure: as §2, §3

sheep red blood cells = test: Hemolytic activity, minimal hemolytic concentration (MHC); assay type: cell-based;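 for MCC: MCC here is the minimal hemolytic concentration (MHC)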
Procedure: as §1

| SMILES | MIC (S. marcescens (13880)) | MIC (S. aureus (H20809)) | MIC (E. faecalis (29212)) | MIC (C. albicans (90028)) | MIC (C. neoformans (M68979)) | MIC (E. cloacae (13047)) | MIC (K. pneumoniae (13883)) | MIC (E. coli (25922)) | MIC (P. vulgaris (13315)) | MIC (S. agalactiae (13813)) | MIC (S. pyrogenes (19615)) | MIC (P. aeruginosa (10145)) | MIC (P. aeruginosa (2853)) | MIC (A. fumigatus (H1120)) | MIC (S. pneumoniae (6305)) | MIC (E. faecium (T6480-9)) | MIC (S. aureus (29213); 24 h) | MIC (S. epidermidis (12228)) | MIC (S. aureus (25923)) | antimicrobial activity (in words) [2] | further results |
| --- | --- | --- | --- | --- | --- | --- | --- | --- | --- | --- | --- | --- | --- | --- | --- | --- | --- | --- | --- | --- | --- |
| C[C@H](CCC(=O)NCCCNCCCCNCCCN)[C@H]1CC[C@H]2[C@@H]3[C@H](O)C[C@@H]4C[C@H](O)CC[C@]4(C)[C@H]3C[C@H](O)[C@]12C [SM-13, cholic acid-spermine conjugate] | > 100 µg/mL | 6.25 µg/mL (≈ 10.5 µM) | 50 µg/mL (≈ 84.3 µM) | 12.5 µg/mL (≈ 21.1 µM) | 3.13 µg/mL (≈ 5.28 µM) | > 100 µg/mL | > 100 µg/mL | 25 µg/mL (≈ 42.2 µM) | > 100 µg/mL | 12.5 µg/mL (≈ 21.1 µM) | 3.13 µg/mL (≈ 5.28 µM) | 25 µg/mL (≈ 42.2 µM) | 25 µg/mL (≈ 42.2 µM) | 25 µg/mL (≈ 42.2 µM) | 25 µg/mL (≈ 42.2 µM) | 50 µg/mL (≈ 84.3 µM) | 12.5 µg/mL (≈ 21.1 µM) | 3.13 µg/mL (≈ 5.28 µM) | 6.25 µg/mL (≈ 10.5 µM) | lesser activity; also recorded: more activity than SM-8, SM-14, and SM-22 | minimal hemolytic concentration (MHC) at 24 h ([1]; sheep red blood cells, 24 hours at 37° C. in saline): > 100 µg/mL |
| C[C@H](CCC(=O)NCCCNCCCCNCCCN)[C@H]1CC[C@H]2[C@@H]3C[C@H](O)[C@@H]4C[C@H](O)CC[C@]4(C)[C@H]3CC[C@]12C [SM-28] | > 100 µg/mL | 6.25 µg/mL (≈ 10.8 µM) | 50 µg/mL (≈ 86.7 µM) | 6.25 µg/mL (≈ 10.8 µM) | 3.13 µg/mL (≈ 5.43 µM) | > 100 µg/mL | > 100 µg/mL | 50 µg/mL (≈ 86.7 µM) | 50 µg/mL (≈ 86.7 µM) | 12.5 µg/mL (≈ 21.7 µM) | 1.56 µg/mL (≈ 2.7 µM) | 25 µg/mL (≈ 43.3 µM) | 25 µg/mL (≈ 43.3 µM) | 25 µg/mL (≈ 43.3 µM) | 50 µg/mL (≈ 86.7 µM) | 50 µg/mL (≈ 86.7 µM) | 6.25 µg/mL (≈ 10.8 µM) | 3.13 µg/mL (≈ 5.43 µM) | 6.25 µg/mL (≈ 10.8 µM) | lesser activity | MCC at 24 h [1]: > 100 µg/mL; MIC (A. fumigatus (H29709)): 25 µg/mL (≈ 43.3 µM); MIC (C. neoformans (90012)): 3.13 µg/mL (≈ 5.43 µM) |
| C[C@H](CCC(=O)NCCCNCCCCNCCCN)[C@H]1CC[C@H]2[C@@H]3[C@H](OS(=O)(=O)O)C[C@@H]4C[C@H](OS(=O)(=O)O)CC[C@]4(C)[C@H]3C[C@H](OS(=O)(=O)O)[C@]12C [SM-14] |  |  |  |  |  |  |  |  |  |  |  |  |  |  |  |  |  |  |  |  | MIC [2]: > 100 µg/mL |
| C[C@H](C(=O)NCCCCN)[C@H]1CC[C@H]2[C@@H]3CC=C4C[C@@H](O)CC[C@]4(C)[C@H]3CC[C@]12C [SM-3] |  |  |  |  |  |  |  |  |  |  |  |  |  |  |  |  |  |  |  |  | MIC [2]: > 100 µg/mL |
| C[C@H](CCCNCCCNCCCCNCCCN)[C@H]1CC[C@H]2[C@@H]3CC[C@@H]4C[C@H](O)CC[C@]4(C)[C@H]3C[C@H](O)[C@]12C [SM-7H] | 12.5 µg/mL (≈ 22.2 µM) |  | 6.25 µg/mL (≈ 11.1 µM) | 6.25 µg/mL (≈ 11.1 µM) | 0.39 µg/mL (≈ 0.693 µM) | 12.5 µg/mL (≈ 22.2 µM) | 12.5 µg/mL (≈ 22.2 µM) | 6.25 µg/mL (≈ 11.1 µM) | 6.25 µg/mL (≈ 11.1 µM) | 0.78 µg/mL (≈ 1.39 µM) | 0.39 µg/mL (≈ 0.693 µM) | 3.13 µg/mL (≈ 5.56 µM) | 3.13 µg/mL (≈ 5.56 µM) | 12.5 µg/mL (≈ 22.2 µM) | 1.56 µg/mL (≈ 2.77 µM) | 6.25 µg/mL (≈ 11.1 µM) |  | 0.39 µg/mL (≈ 0.693 µM) |  |  | MCC at 24 h [1]: 50 µg/mL; hemolytic activity (in words) (sheep red blood cells): unwanted hemolytic activity; activity against S. marcescens (S. marcescens (13880); in words): found even against S. marcescens; also recorded: effective against S. marcescens; MIC (A. fumigatus (H29709)): 12.5 µg/mL (≈ 22.2 µM); MIC (C. neoformans (90012)): 0.39 µg/mL (≈ 0.693 µM); MIC (S. aureus (29213); S. aureus (29213), 35° C., 24 hours): 0.78 µg/mL (≈ 1.39 µM) |
